Measurements: ChEMBL document CHEMBL4402577, “Discovery and Optimization of a Compound Series Active against Trypanosoma cruzi, the Causative Agent of Chagas Disease” (J Med Chem, 2020)
Converted amounts (≈) assume the structure as drawn.

Experiments:
Trypanosoma cruzi = test: Antitrypanosomal activity against Trypanosoma cruzi Tulahuen strain C2C4 trypomastigotes infected in rat L6 cells incubated for 96 hrs by photometric method based assay; format: functional, organism-based; details: Tulahuen strain C2C4, L6, 96 h
[1] = Selectivity ratio, EC50 for cytotoxicity against rat L6 cells to EC50 for antitrypanosomal activity against Trypanosoma cruzi Tulahuen strain C2C4 trypomastigotes infected in rat L6 cells; format: toxicity, cell-based; details: read-out: Ratio EC50
L6 = test: Cytotoxicity against rat L6 cells incubated for 70 hrs by resazurin dye based assay; format: cell-based; details: L6, 70 h
[2] = Intrinsic clearance in CD1 mouse liver microsomes at 0.5 uM measured up to 30 mins in presence of NADPH by UPLC-MSMS analysis; format: ADME, Microsome; details: 0.5 h
[3] = Kinetic aqueous solubility of compound in DMSO by nephelometric analysis; format: physicochemical; details: read-out: Kinetic_solubility

EC50 (Trypanosoma cruzi)	intrinsic clearance [2]	solubility kinetic [3]	Structure (SMILES)	selectivity ratio [1]	EC50 (L6)
14 µM	–	–	O=c1[nH]c2ccc(-c3cncnc3)cc2c(=O)n1CCC1CCCCC1	9	126 µM
3.5 µM	< 0.5 mL/min/g	–	CC(=O)Nc1ccc2[nH]c(=O)n([C@H]3CC[C@H](OC(C)(C)C)CC3)c(=O)c2c1	35	123 µM
9.7 µM	–	–	CC(=O)Nc1ccc2[nH]c(=O)n(CCC(C)C)c(=O)c2c1	17	163 µM
2.3 µM	–	–	CC(=O)Nc1ccc2[nH]c(=O)n(CC3CCCCC3)c(=O)c2c1	23	54 µM
140 µM	–	–	CC(=O)Nc1ccc2[nH]c(=O)n(C3CCN(C(=O)c4ccccc4)CC3)c(=O)c2c1	1	135 µM
2.6 µM	–	–	CC(=O)Nc1ccc2[nH]c(=O)n([C@H]3CC[C@@H](NC(=O)OC(C)(C)C)CC3)c(=O)c2c1	45	118 µM
1.2 µM	1.7 mL/min/g	< 17 µM	CC[C@H]1CC[C@@H](n2c(=O)[nH]c3ncc(N)cc3c2=O)CC1	210	250 µM
0.022 µM	3.2 mL/min/g	131 µM (≈ 46.8 µg/mL)	CC(=O)Nc1ccc2[nH]c(=O)n([C@H]3CC[C@H](C(C)(C)C)CC3)c(=O)c2c1	180	3.9 µM
0.085 µM	12 mL/min/g	73 µM (≈ 24 µg/mL)	CC[C@H]1CC[C@@H](n2c(=O)[nH]c3ccc(NC(C)=O)cc3c2=O)CC1	460	39 µM
2.6 µM	–	–	CC(=O)Nc1ccc2[nH]c(=O)n([C@H]3CC[C@H](C(C)(C)F)CC3)c(=O)c2c1	6.5	17 µM
12 µM	–	–	CC(=O)Nc1ccc2[nH]c(=O)n(C3CCCC3)c(=O)c2c1	15	184 µM
2.1 µM	–	–	N#CCc1ccc2[nH]c(=O)n(CCC3CCCCC3)c(=O)c2c1	33	70 µM
0.3 µM	0.5 mL/min/g	22 µM (≈ 7.27 µg/mL)	CC[C@H]1CC[C@H](n2c(=O)[nH]c3ncc(NC(C)=O)cc3c2=O)CC1	720	215 µM
7.1 µM	–	–	CC(C)(C)C(=O)Nc1ccc2[nH]c(=O)n(CCC3CCCCC3)c(=O)c2c1	1.8	13 µM
2.2 µM	–	–	CC(=O)Nc1ccc2[nH]c(=O)n([C@H](C)C3CCCCC3)c(=O)c2c1	40	88 µM
220 µM	–	–	CC(=O)Nc1ccc2[nH]c(=O)n(C3CCN(C(C)(C)C)CC3)c(=O)c2c1	1	> 280 µM
0.33 µM	2.7 mL/min/g	48 µM (≈ 15.9 µg/mL)	CC[C@H]1CC[C@@H](n2c(=O)[nH]c3ncc(NC(C)=O)cc3c2=O)CC1	150	48 µM
120 µM	–	–	Cc1noc(C)c1-c1ccc2[nH]c(=O)n(CCC3CCCCC3)c(=O)c2c1	–	88 µM
1.7 µM	–	–	O=c1[nH]c2ccc(-c3ccncc3)cc2c(=O)n1CCC1CCCCC1	8	14 µM

EC50 (Trypanosoma cruzi)	intrinsic clearance [2]	solubility kinetic [3]	Structure (SMILES)	selectivity ratio [1]	EC50 (L6)
0.12 µM	1.9 mL/min/g	25 µM (≈ 7.56 µg/mL)	CC(C)[C@H]1CC[C@H](n2c(=O)[nH]c3ncc(N)cc3c2=O)CC1	380	46 µM
0.18 µM	3.7 mL/min/g	128 µM (≈ 42.2 µg/mL)	CC(=O)Nc1ccc2[nH]c(=O)n(C3CCC(C)(C)CC3)c(=O)c2c1	67	12 µM
139 µM	–	130 µM (≈ 46.7 µg/mL)	CC(=O)Nc1ccc2[nH]c(=O)n([C@H]3CC[C@H](C(C)(C)O)CC3)c(=O)c2c1	0.98	136 µM
1.1 µM	–	–	CC(=O)Nc1ccc2[nH]c(=O)n(CCc3ccccc3)c(=O)c2c1	130	139 µM
4.3 µM	–	–	CC(=O)Nc1ccc2[nH]c(=O)n(-c3ccc(C(C)(C)C)cc3)c(=O)c2c1	4	17 µM
0.2 µM	26 mL/min/g	–	CC(=O)Nc1ccc2[nH]c(=O)n([C@H]3CC[C@@H](C(C)C)CC3)c(=O)c2c1	210	41 µM
0.73 µM	–	–	CC(=O)Nc1ccc2[nH]c(=O)n(CCC3CCCCC3)c(=O)c2c1	110	52 µM
1.94 µM	–	–	O=C(Cn1ccnc1[N+](=O)[O-])NCc1ccccc1 [BENZNIDAZOLE]	–	–
2.1 µM	–	–	CC(=O)Nc1ccc2[nH]c(=O)n(C3CCCCCC3)c(=O)c2c1	53	112 µM
0.02 µM	19 mL/min/g	102 µM (≈ 35 µg/mL)	CCC[C@H]1CC[C@@H](n2c(=O)[nH]c3ccc(NC(C)=O)cc3c2=O)CC1	700	14 µM
–	–	–	COc1cc([C@@H]2c3cc4c(cc3[C@H](O)[C@H]3COC(=O)[C@H]23)OCO4)cc(OC)c1OC [PODOFILOX]	–	0.014 µM
0.58 µM	< 0.5 mL/min/g	–	CC(=O)Nc1ccc2[nH]c(=O)n([C@H]3CO[C@H](C(C)(C)C)OC3)c(=O)c2c1	47	27 µM
4.2 µM	–	–	CC(=O)Nc1ccc2[nH]c(=O)n(C3CCCCC3)c(=O)c2c1	17	70 µM
4 µM	–	–	CC(=O)Nc1ccc2[nH]c(=O)n(CCCC(C)C)c(=O)c2c1	43	173 µM
0.48 µM	–	–	CC(=O)Nc1ccc2[nH]c(=O)n(CCCC3CCCCC3)c(=O)c2c1	180	87 µM
0.02 µM	31 mL/min/g	–	CC(=O)Nc1ccc2[nH]c(=O)n(C3CCC(C(C)(C)C)C3)c(=O)c2c1 (racemic)	2100	41 µM
0.12 µM	4.2 mL/min/g	–	CC[C@H]1CC[C@H](n2c(=O)[nH]c3ccc(N)cc3c2=O)CC1	270	32 µM
30 µM	–	–	CC(=O)Nc1ccc2[nH]c(=O)n(C3CCN(C(=O)OC(C)(C)C)CC3)c(=O)c2c1	4.2	127 µM
61 µM	–	–	CC(=O)Nc1ccc2[nH]c(=O)n(C(C)(C)C)c(=O)c2c1	0.6	37 µM

EC50 (Trypanosoma cruzi)	intrinsic clearance [2]	solubility kinetic [3]	Structure (SMILES)	selectivity ratio [1]	EC50 (L6)
2.9 µM	–	–	CCCCCCn1c(=O)[nH]c2ccc(NC(C)=O)cc2c1=O	53	154 µM
1.4 µM	–	–	CC(=O)Nc1ccc2[nH]c(=O)n(C3CCC(C)CC3)c(=O)c2c1 (mixture of isomers)	39	54 µM
2.1 µM	16 mL/min/g	–	CC(=O)Nc1ccc2[nH]c(=O)n([C@H]3CCO[C@@H](C(C)(C)C)C3)c(=O)c2c1 (racemic)	60	125 µM
35 µM	–	–	COCCn1c(=O)[nH]c2ccc(NC(C)=O)cc2c1=O	0.003	0.1 µM
3.1 µM	< 0.5 mL/min/g	–	CC(=O)Nc1ccc2[nH]c(=O)n([C@H]3CC[C@H](OC(C)C)CC3)c(=O)c2c1	44	136 µM
0.24 µM	1.6 mL/min/g	–	CC(C)(C)[C@H]1CC[C@@H](n2c(=O)[nH]c3ncc(N)cc3c2=O)CC1	183	44 µM
54 µM	–	–	CC(=O)Nc1ccc2[nH]c(=O)n(C3CCN(C(=O)OC(C)(C)C)C3)c(=O)c2c1 (racemic)	3.1	170 µM
2.3 µM	–	97 µM (≈ 32 µg/mL)	CC(=O)Nc1cnc2[nH]c(=O)n(CCC3CCCCC3)c(=O)c2c1	57	130 µM
–	3.9 mL/min/g	240 µM (≈ 75.7 µg/mL)	CC(C)(C)[C@H]1CC[C@@H](n2c(=O)[nH]c3ccc(N)cc3c2=O)CC1	–	–
0.66 µM	0.5 mL/min/g	–	CC(C)(C)[C@H]1CC[C@H](n2c(=O)[nH]c3ncc(N)cc3c2=O)CC1	95	63 µM
1.9 µM	–	–	Nc1ccc2[nH]c(=O)n(CCC3CCCCC3)c(=O)c2c1	10	19 µM
0.027 µM	–	–	CC(C)[C@H]1CC[C@H](n2c(=O)[nH]c3ccc(N)cc3c2=O)CC1	810	22 µM
17 µM	–	–	CC(=O)Nc1ccc2[nH]c(=O)n(Cc3ccccc3)c(=O)c2c1	9	148 µM
7.5 µM	–	–	CC(=O)Nc1ccc2[nH]c(=O)n(CCCc3ccccc3)c(=O)c2c1	18	134 µM
0.061 µM	1.4 mL/min/g	–	CC(=O)Nc1cnc2[nH]c(=O)n([C@H]3CC[C@H](C(C)C)CC3)c(=O)c2c1	520	32 µM
170 µM	–	–	CC(=O)Nc1ccc2[nH]c(=O)n(C(CC3CCCCC3)C(N)=O)c(=O)c2c1 (centres undefined)	1.3	222 µM
2.1 µM	–	–	CC(=O)Nc1ccc2[nH]c(=O)n(CCC3=CCCCC3)c(=O)c2c1	51	107 µM
1.9 µM	–	–	O=c1[nH]c2ccc(-c3cccnc3)cc2c(=O)n1CCC1CCCCC1	7.4	14 µM
0.35 µM	< 0.5 mL/min/g	–	CC(=O)Nc1ccc2[nH]c(=O)n([C@H]3CC[C@H](C(F)(F)F)CC3)c(=O)c2c1	27	9.5 µM
